Common to all, as to assay type: cell-based
The subject of one data set is HCT116. The data set is described as follows: 51Cr release assay of peptide-induced human CTLs against cancer cell line. Conditions: for cytotoxicity to HCT116 (CDH3+, HLA-A2+): CTLs from healthy donors; for cytotoxicity to HCT116: FIG. 4C: CTLs from PBMCs of HLA-A2 positive cancer patients. The source says: (§1) Human pancreatic cancer cell line PK8 was kindly provided by the Cell Resource Center for Biomedical Research, Institute of Development, Aging and Cancer, Tohoku University. Human colon cancer cell line HCT116 was kindly provided by Dr. B. Vogelstein, Johns Hopkins University (Baltimore, Md.). Human liver cancer cell line SKHep1 was kindly provided by Professor Kyogo Ito, Kurume University (Kurume, Japan).
(§2) PBMCs derived from heparinized blood of HLA-A2 positive pancreatic cancer patients, gastric cancer patients, colorectal cancer patients, or healthy donors were isolated by Ficoll-Conray density gradient centrifugation. […] DCs were pulsed with 20 μg/mL of a candidate peptide in the presence of 4 μg/mL β2-microglobulin (Sigma-Aldrich, St. Louis, Mo., USA) for two hours at 37° C. in AIM-V (Invitrogen) containing 2% heat-inactivated autologous plasma. These DCs were then irradiated (40 Gy) and incubated with CD8 positive cells. The incubation was carried out in 24-well plates, which were prepared to contain in each well 2 mL of AIM-V supplemented with 2% autologous plasma, 1×10^5 peptide-pulsed DCs, 2×10^6 CD8^+ T cells, and 5 ng/mL of human recombinant IL-7 (Wako, Osaka, Japan). After two days, these cultures were supplemented with human recombinant IL-2 (PeproTec Inc.) to a final concentration of 20 IU/mL. Two additional weekly stimulations with the same peptide-pulsed autologous DCs using the same procedure were carried out on day 7 and day 14. Six days after the last stimulation, the antigen-specific responses of induced CTLs were evaluated by ^51Cr release assay and IFN-γ ELISPOT assay.

For another data set, the system named is SKHep1/CDH3. The description is as above. The following applies: FIG. 4C: CTLs from PBMCs of HLA-A2 positive cancer patients. Here is the method:
as §1
(§3) After 60 hours, the culture medium was recovered and the viral particles were pelleted by ultracentrifugation (50,000×g, two hours).
as §2

The test system of another data set is PANC1/CDH3. Described as above. Conditions: for cytotoxicity to PANC1/CDH3: FIG. 4C: CTLs from PBMCs of HLA-A2 positive cancer patients. Here is the method:
as §1, §3, §2

Another data set relates to HSC3. The description is as above. Conditions: CTLs from healthy donors.
Description: as §1, §2

In another data set the test system is T2 cells. The data set is described as follows: 51Cr release assay of peptide-induced human CTLs against peptide-pulsed T2 cells. Conditions: CTLs induced from PBMCs of HLA-A2 positive healthy donors, three stimulations.
Description: as §1
PBMCs derived from heparinized blood of HLA-A2 positive pancreatic cancer patients, gastric cancer patients, colorectal cancer patients, or healthy donors were isolated by Ficoll-Conray density gradient centrifugation. […] DCs were pulsed with 20 μg/mL of a candidate peptide in the presence of 4 μg/mL β2-microglobulin (Sigma-Aldrich, St. Louis, Mo., USA) for two hours at 37° C. in AIM-V (Invitrogen) containing 2% heat-inactivated autologous plasma. These DCs were then irradiated (40 Gy) and incubated with CD8 positive cells. […] Six days after the last stimulation, the antigen-specific responses of induced CTLs were evaluated by ^51Cr release assay and IFN-γ ELISPOT assay.
CD8 T cells sorted from PBMCs were incubated with autologous mononuclear cell (monocyte)-derived DCs pulsed with each peptide. After three stimulations, cytocidal effect against peptide-pulsed T2 cells was evaluated by ^51Cr release assay (FIG. 4A) and IFN-γ ELISPOT assay.

In another data set the test system is PK8. The data set is described as follows: 51Cr release assay of peptide-induced human CTLs against cancer cell line. Conditions: CTLs from healthy donors.
Description: as §1, §2

Another data set relates to SKHep1. The data set is described as above. Conditions: CTLs from healthy donors.
Description: as §1, §2

A further data set relates to PANC1. Described as above. The following applies: CTLs from healthy donors.
Description: as §1, §2

“Also recorded” adds a separate entry of the source. Where a SMILES comes first, the peptide text is derived from it.

On to `CC(C)C[C@H](NC(=O)[C@@H](NC(=O)[C@H](C)NC(=O)[C@H](Cc1ccc(O)cc1)NC(=O)[C@@H](NC(=O)[C@H](CC(N)=O)NC(=O)[C@H](Cc1ccc(O)cc1)NC(=O)[C@H](CC(C)C)NC(=O)[C@@H](N)CO)[C@@H](C)O)[C@@H](C)O)C(=O)O` [HIV peptide, SLYNTYATL, reference compound] (H-SLYNTYATL-OH), for which the “cytotoxicity to HCT116 (CDH3+, HLA-A2+)” value in the data set on HCT116 is given as “did not exhibit cytotoxicity; also recorded: did not show cytotoxicity”.
Regarding `CC[C@H](C)[C@H](NC(=O)[C@@H](NC(=O)[C@@H](N)Cc1ccccc1)[C@@H](C)CC)C(=O)N[C@@H](CCC(=O)O)C(=O)N[C@@H](CC(N)=O)C(=O)N[C@@H](CC(C)C)C(=O)N[C@@H](CCCCN)C(=O)N[C@@H](C)C(=O)N[C@@H](C)C(=O)O` [CDH3-7, FIIENLKAA] (H-FIIENLKAA-OH), the “cytotoxicity to SKHep1/CDH3 (CDH3+, HLA-A2+)” value in the data set on SKHep1/CDH3 is given as “exhibited cytotoxicity”. Also, the “cytotoxicity to PANC1/CDH3” value in the data set with PANC1/CDH3 is given as “exhibited cytotoxicity”. Besides, the “cytotoxicity to HCT116” value in the data set on HCT116 is given as “exhibited cytotoxicity”. In addition, the “cytotoxicity to HSC3 (CDH3+, HLA-A2+)” value in the data set with HSC3 is “exhibited cytotoxicity”. Besides, the “cytotoxicity (cytocidal effect) against peptide-pulsed T2 cells” value in the data set with T2 cells (listed as CDH3-7757-765) is “exhibited cytocidal effect; also recorded: exhibited cytotoxicity”.
Take `CC[C@H](C)[C@H](NC(=O)[C@@H](N)Cc1ccccc1)C(=O)N[C@@H](CC(C)C)C(=O)N1CCC[C@H]1C(=O)N[C@H](C(=O)N[C@@H](CC(C)C)C(=O)NCC(=O)N[C@@H](C)C(=O)N[C@H](C(=O)O)C(C)C)C(C)C` [CDH3-4, FILPVLGAV] (H-FILPVLGAV-OH): in the data set on SKHep1/CDH3, the “cytotoxicity to SKHep1/CDH3 (CDH3+, HLA-A2+)” value was “exhibited cytotoxicity”. In the data set with PANC1/CDH3 (CTLs from healthy donors), the “cytotoxicity to PANC1/CDH3 (CDH3+, HLA-A2+)” value is recorded as “exhibited in healthy donors cytotoxicity”. Also, the “cytotoxicity to PANC1/CDH3” value with PANC1/CDH3 was “exhibited cytotoxicity”. For the same compound, in the data set with PK8, the “cytotoxicity to PK8 (CDH3+, HLA-A2−)” value is listed as “did not exhibit the same effect”. Moreover, in the data set on HCT116, the “cytotoxicity to HCT116 (CDH3+, HLA-A2+)” value is reported as “exhibited in healthy donors cytotoxicity” and the “cytotoxicity to HCT116” value is “exhibited cytotoxicity”. The “cytotoxicity to SKHep1 (CDH3−, HLA-A2+)” value with SKHep1 is “did not exhibit the same effect”. For the same compound, in the data set on PANC1, the “cytotoxicity to PANC1 (CDH3−, HLA-A2+)” value is reported as “did not exhibit the same effect”. Besides, the “cytotoxicity to HSC3 (CDH3+, HLA-A2+)” value in the data set on HSC3 is given as “exhibited in healthy donors cytotoxicity”. Further, the “cytotoxicity (cytocidal effect) against peptide-pulsed T2 cells” value in the data set on T2 cells (listed as CDH3-4655-663) is recorded as “exhibited cytocidal effect; also recorded: exhibited cytotoxicity”.

(Values after patent US8455444B2, “CDH3 peptide and medicinal agent comprising the same” (Oncotherapy Science, Inc., priority 2007, dated 2013).)
